In PMC9234671, “Molecular determinants of αVβ5 localization in flat clathrin lattices – role of αVβ5 in cell adhesion and proliferation” (Journal of Cell Science, 2022):

How the values were obtained:
[1] = test system: phosphorylated MLC in PA-JEB/β4 keratinocytes; assay: Western blot: cell tension (phosphorylated myosin light chain); assay type: cell-based, human; settings: nocodazole
Experimental: Proteins were separated by electrophoresis using a Bolt Novex 4–12% gradient Bis-Tris gels (Invitrogen) or 15% SDS-PAGE gels (made in-house), transferred to Immobilon-P transfer membranes (Millipore Corp) and blocked for at least 30 min in 2% BSA in TBST buffer (10 mM Tris-HCl pH 7.5, 150 mM NaCl and 0.3% Tween-20). Primary antibody (diluted 1:1000 in 2% BSA in TBST buffer) incubation took place overnight at 4°C. After washing twice with TBST and twice with TBS, blots were incubated for 1 h hour at room temperature with horseradish peroxidase-conjugated goat anti-mouse-IgG or goat anti-rabbit-IgG (diluted 1:3000 in 2% BSA in TBST buffer). After subsequent washing steps, the bound antibodies were detected by enhanced chemiluminescence using SuperSignal™ West Dura Extended Duration Substrate (ThermoFisher) or Clarity™ Western ECL Substrate (Bio-Rad) as described by the manufacturer. Signal intensities were quantified using ImageJ.
Fig. S4. (A) Representative western blots of phosphorylated myosin light chain (MLC) and GAPDH in PA-JEB/β4 keratinocytes treated with DMSO versus Nocodazole. […]
μm. Quantifications of β5 or β5 mutants clustering in FAs are shown in (C-E). […] Total cells analyzed per condition: 90 (WT, DMSO), 111 (WT, Noco.) (C), 40 (S>E, DMSO), 80 (S>E, Noco.) (D), 65 (S>A, DMSO), 82 (S>A, Noco.) (E). […]

[2] = test system: integrin β5 localization in PA-JEB/β4 keratinocytes; assay: Immunofluorescence: integrin β5 clustering in FAs/FCLs, PA-JEB/β4; assay type: cell-based, human
From the text: Fig. 3. Serine 759 and 762 are involved in regulating the localization of integrin β5. (A–C) Integrin β5 containing S759/762E or S759/762A mutations (A) were expressed in β5-deficient PA-JEB/β4 keratinocytes and the subcellular distribution of β5 was compared to β5-deficient keratinocytes expressing wild-type (WT) β5. Merged images show integrin β5 (green), vinculin (B) or clathrin (C) (red), actin (blue) and the cell nuclei (cyan). (D,E) Analysis of wild-type versus mutant integrin β5 clustering in FAs or FCLs. (F–I) PA-JEB/β4 keratinocytes were grown in 10% FCS-supplemented DMEM culture medium overnight and then treated with 5 nM calyculin A (Cal.A) or DMSO (vehicle control) for 30 min prior to fixation. Merged images show integrin β5 (green), vinculin (F) or clathrin (H) (red), actin (blue) and the cell nuclei (cyan), quantifications of β5 clustering in FAs or FCLs are shown in G,I. (J,K) Analysis of integrin β5 clustering in FAs or FCLs in PA-JEB keratinocytes after treatment with Cal.A. Representative confocal microscopy images are shown in Fig. S3. Scale bars: 20 μm. Data were obtained from three independent experiments. Total cells analyzed per condition: 109 (WT), 116 (S>E), 103 (S>A) (D), 81 (WT), 77 (S>E), 101 (S>A) (E), 126 and 123 (G), 111 and 101 (I), 106 and 102 (J), 115 and 109 (K). ****P<0.0001 (Mann–Whitney U-test). Box plots range from the 25th to 75th percentile; central line indicates the median; whiskers show smallest to largest value.
PA-JEB/β4 keratinocytes were seeded on glass coverslips and cultured in complete KGM medium for 24 h, and then treated with DMEM plus 10% FCS for 24 h. Other cell lines were seeded on glass coverslips and cultured in DMEM plus 10% FCS. Cells were fixed with 2% paraformaldehyde (PFA) for 10 min, permeabilized with 0.2% Triton X-100 for 5 min, and blocked with PBS containing 2% bovine serum albumin (BSA; Sigma) for at least 30 min. Next, cells were incubated with the primary antibodies for 1 h at room temperature. Cells were washed three times before incubation with the secondary antibodies for 1 h. Additionally, nuclei were stained with DAPI, and filamentous actin was visualized using Alexa Fluor 488 or 647-conjugated phalloidin (Invitrogen). After three washing steps with PBS, the coverslips were mounted onto glass slides in Mowiol. Images were obtained using a Leica TCS SP5 confocal microscope with a 63× (NA 1.4) oil objective.
Image analysis was performed using Fiji (ImageJ) ([Schindelin et al., 2012]; [Schneider et al., 2012]). To quantify integrin clustering in FAs (based on vinculin staining) versus FCLs (clathrin staining), background was subtracted in both channels using a bilateral filter and the region of interest (ROI) was selected at the cell periphery. Colocalization of integrin clusters and FAs or FCLs was determined using the Image Calculator (command ‘multiply’) on both channels and calculating the area of overlapping clusters as a percentage of the total integrin cluster area per cell using the Analyze Particle function.

Compound: COC(=O)Nc1nc2ccc(C(=O)c3cccs3)cc2[nH]1 [nocodazole]
- cell tension [1]: increased cell tension
- localization of β5 in FCLs ([2]; nocodazole): inhibits the localization of β5 in FCLs
- localization of β5 within FAs and FCLs ([2]; nocodazole versus DMSO, three independent experiments): significant shift in the localization of β5 from FCLs to FAs
- localization of phospho-inhibitory β5 mutant ([2]; nocodazole, β5-deficient keratinocytes expressing β5-S759/762A): neither of their localizations were altered
- localization of phospho-mimetic β5 mutant ([2]; nocodazole, β5-deficient keratinocytes expressing β5-S759/762E): neither of their localizations were altered
